According to patent publication US5066592A, “Trigramin - a platelet aggregation inhibiting polypeptide” (Temple University of the Commonwealth System of Higher …, priority 1990, dated 1991):

How the values were obtained:
[1] = test system: melanoma cells that contain GPIIIa and vitronectin receptor; experiment: Melanoma cell adhesion to fibronectin-covered substrata and cell spreading; assay type: cell-based
Text: We have also observed an interaction between trigramin and melanoma cells that contain GPIIIa and vitronectin receptor. […] In the system tested, the biological activity of 0.2 nmoles of trigramin corresponded to 100 nmoles of the peptide glycine-arginine-glycine-aspartic acid-serine ("GRGDS"). This observation is interesting in view of the successful efforts of Humphries et al., Science 233: 467-470 to inhibit metastases of a melanoma cell line in mice by GRGDS.

[2] = test system: bleeding time from hamster mesentery lesion; experiment: Hamster mesentery bleeding time during intravenous infusion; assay type: in vivo, golden Syrian hamsters
Protocol: Female golden Syrian hamsters (90-150 g) were maintained on food and water ad libitum, but fasted overnight prior to their use in the present experiment. After the administration of anesthesia (65 mg/kg sodium pentobarbital, i.p.), the animals were shaved in preparation for surgery. The trachea was intubated with PE-100 polyethylene tubing to facilitate spontaneous breathing. Cannulation of the right femoral vein was performed to provide an intravenous route for supplemental anesthesia as well as for the administration of various control and experiment agents. A catheter was introduced into the right carotid artery for the continuous monitoring of arterial blood pressure, and a rectal temperature probe was inserted. The animal's body temperature was maintained at 37° C. with a heating pad and lamp.
The shaved abdomen was opened by a mid-line incision and a portion of the small intestine was exteriorized and draped over a lucite pedestal. Exposed tissue was kept warm and moist by continuous superfusion with warmed (37° C.) Mammalian Ringer's Solution. Experimental solutions were infused into the right femoral vein at a rate of 0.199 ml/min with a Harvard pump for a 10 minute period. An arterial vessel (external diameter, 100-200 micrometers) located at the junction of the small intestinal wall and the mesentery was severed 4 minutes after the start of the infusion. Blood was flushed away by the superfusion system and the waste was removed with a vacuum from a well surrounding the viewing pedestal. Bleeding was observed through Zeiss dissecting microscope (20×) and bleeding time was recorded from the time of the cut until the cessation of bleeding by the formation of a hemostatic plug. Each animal was used as its own control with bleeding time determined both during the infusion of saline and the selected experimental agent. […] Four additional animals were infused with trigramin while arterial blood pressure was continuously monitored to determine if it had any direct effect on systemic blood pressure. […]

[3] = Phospholipase A activity of the HPLC-purified material; assay type: biochemical
Protocol: A high performance liquid chromatography column (250×4.6 mm) containing a wide-pore C-18 silica matrix (e.g., VYDAC TPRP, The Separations Group, Hesperia, Calif.) is equilibrated at 20° C. in 0.1% trifluoroacetic acid. 150 micrograms of the above-prepared crude material in 200 microliters of 0.15M NaCl is injected into the column at a flow rate of 1.0 ml/min. The column is washed for 3 minutes. Fractions are eluted over 50 minutes with a gradient of 0-55% acetonitrile. […] The homogeneity of the purified material is confirmed by SDS-polyacrylamide gel electrophoresis with a silver stain (1 microgram). Trigramin appears as a single band with apparent molecular weight of about 9 kd on 20% gels.

[4] = molecular target: T1, GPIIb-GPIIIa complex on thrombin-stimulated platelets (Homo sapiens, UniProt P05106+P08514); experiment: 125I-von Willebrand Factor binding to thrombin-stimulated human platelets; conditions: trigramin 10^-8 M; thrombin 0.5 u/ml; von Willebrand Factor 5 micrograms/ml
T1 construct: endogenous in cells; host or cells: human platelets stimulated with thrombin (0.5 u/ml)
Protocol: (§1) The final concentration of von Willebrand Factor was 5 micrograms/ml. The total specific von Willebrand Factor binding was 380+/-55 ng/10^8 platelets in the control sample. […] It is well known that von Willebrand Factor binds to GPIIb-GPIIIa complex on thrombin-stimulated platelets, and to GPIb on ristocetin-stimulated platelets.

[5] = test system: exposed fibrinogen receptors on alpha-chymotrypsin-treated platelets; experiment: 125I-fibrinogen binding to alpha-chymotrypsin-treated platelets; set-up: species or system human; conditions: data not shown; read-out: IC50 of inhibition of 125I-fibrinogen binding to alpha-chymotrypsin-treated platelets
Protocol: (§2) The following experiment illustrates that trigramin can inhibit fibrinogen binding to platelets. Human washed platelet suspension was prepared according to the method of Mustard et al., Brit. J. Haemat. 22:193-204 (1972) and suspended in Tyrode's albumin solution (pH 7.35) containing 3.5 mg/ml bovine serum albumin (Sigma, Fraction V). To 420 microliters of this platelet suspension (about 5×10^8 platelets/ml) was added 10 microliters of ^125 I-fibrinogen. An amount of trigramin was added to the suspension, followed 3 minutes later by 10 microliters ADP (final concentration 10 micromolar). Following addition of ADP, the platelet suspension was gently shaken and incubated for about another 10 minutes. Then, 400 microliters of the platelet suspension were centrifuged through silicone oil at 15,000 g in an Eppendorf centrifuge. The amount of ^125 I-fibrinogen bound to the platelet pellet was measured. Nonspecific binding of fibrinogen was measured in the presence of 6 mM EDTA. The IC50 or 50% inhibition of fibrinogen binding was determined.
(§3) Platelet suspension was prepared as above. Platelets treated with alpha chymotrypsin (Sigma, grade IS) were prepared as described by Kornecki et al., J. Biol. Chem. 258:9349-9356 (1983), except that the incubation time of the platelets with chymotrypsin was reduced from 45 minutes to 20 minutes.

GPIIb-GPIIIa complex = molecular target: T2, GPIIb-GPIIIa complex (Homo sapiens, UniProt P05106+P08514); experiment: 125I-trigramin binding to human platelets
T2 construct: endogenous in cells; host or cells: human platelets (resting, ADP-stimulated or chymotrypsin-treated)
Text: There are several similarities between the binding of ^125 I-trigramin and the binding of ^125 I-fibrinogen to human platelets. The binding of both ligands is inhibited by EDTA; by monoclonal antibodies interacting with the GP-IIb-GPIIIa complex (Coller, J. Clin. Invest. 76:101-108 (1985) and Bennett et al., Proc. Natl. Acad. Sci. U.S.A. 80:2417-2421 (1983)); by synthetic peptides representing putative platelet binding sites on the fibrinogen molecule Arg-Gly-Asp-Ser (Gartner et al., J. Biol. Chem. 260:11891-11894 (1985) and Plow et al., Proc. Natl. Acad. Sci. U.S.A. 82:8057-8061 (1985)); and by tyrosyl pentadecapeptide of the C-terminal portion of the gamma chain, […](Kloczewiak et al., Biochemistry 23:1767-1774 (1984). […] These individuals are deficient in the GPIIb-GPIIIa complex.
The binding affinity of trigramin to ADP-stimulated platelets resembles that of monoclonal antibodies.

ADP-stimulated platelets = experiment: Fibrinogen-induced aggregation of ADP-stimulated platelets in suspension (turbidimetric); assay type: cell-based, human; conditions: ADP 10 micromolar, fibrinogen 200 micrograms/ml, 37° C.; read-out: IC50 for inhibition of aggregation of ADP-stimulated platelets
Protocol: as §3
(§4) Various doses of trigramin (0.25-5.0 microgram/ml) were added to 420 microliters of platelet suspension (3×10^8 platelets per ml). One minute later, 10 microliters ADP (10 micromolar) and 10 microliters fibrinogen (200 micrograms) were added to initiate platelet aggregation. The same procedure using fibrinogen alone (without ADP) was carried out to induce aggregation of the chymotrypsin-treated platelets. The extent of platelet aggregation in each system was measured at 37° C. by the turbidimetric method of Born et al., J. Physiol. (Lond.) 168:178-195 (1963).

Solubility in water = assay type: physicochemical
[6] = test system: chymotrypsin-treated platelets; experiment: Fibrinogen-induced aggregation of chymotrypsin-treated platelets (turbidimetric); assay type: cell-based, human; conditions: fibrinogen alone, without ADP, 37° C.; read-out: IC50 for inhibition of chymotrypsin-treated platelets (aggregation)
Protocol: as §3, §4

Stability to proteolysis = assay type: in vitro ADME
[7] = Elimination from the circulation; conditions: in vivo
[8] = molecular target: T3, GPIb on ristocetin-stimulated platelets (Homo sapiens, UniProt P07359); experiment: 125I-von Willebrand Factor binding to ristocetin-stimulated platelets; conditions: ristocetin 0.75 mg/ml
T3 construct: endogenous in cells; host or cells: platelets stimulated with ristocetin (0.75 mg/ml)
Protocol: as §1

platelets = experiment: Platelet aggregation induced by prostaglandin endoperoxide analogue or thrombin; assay type: cell-based, human; conditions: isolated platelet suspension
[9] = molecular target: T4, fibrinogen receptors on platelets associated with the GPIIb-GPIIIa complex (Homo sapiens, UniProt P05106+P08514); experiment: 125I-fibrinogen binding to ADP-stimulated human washed platelets; conditions: ADP 10 micromolar-stimulated platelets; double-reciprocal plot FIG. 1; read-out: inhibition constant, Ki (competitive inhibition of fibrinogen binding)
T4 construct: Human washed platelet suspension was prepared; endogenous in cells; host or cells: washed human platelets, stimulated with 10 micromolar ADP
Protocol: as §2

trigramin
adhesion of melanoma cells to fibronectin-covered substrata [1]: blocks the adhesion | melanoma cell spreading [1]: inhibits cell spreading | amount giving corresponding biological activity in the melanoma cell system ([1]; 0.2 nmoles of trigramin corresponded to 100 nmoles of GRGDS): 0.2 nmoles | bleeding time after cessation of infusion ([2]; hamster, infusion 80 micrograms/kg/min, FIG. 4): rapid return of bleeding time to normal values | bleeding time of the hamster mesentery during continuous infusion ([2]; i.v. infusion, dose-dependent, control bleeding time 3.02 minutes+/-0.43, FIG. 3): markedly increased | phospholipase A activity [3]: devoid of phospholipase A activity | blocking of von Willebrand Factor binding to thrombin-stimulated human platelets [4]: specifically blocks | IC50 [5]: 11 nM | binding affinity of 125I-trigramin relative to 125I-fibrinogen, judged on dissociation constants (GPIIb-GPIIIa complex; ADP-stimulated platelets): approximately 15 fold | binding to platelets of patients with Glanzmann's thrombasthenia (GPIIb-GPIIIa complex; platelets deficient in the GPIIb-GPIIIa complex): Neither trigramin nor fibrinogen was observed to bind sufficiently | number of trigramin binding sites relative to total number of fibrinogen binding sites exposed by ADP (GPIIb-GPIIIa complex; similar on resting, ADP-stimulated and chymotrypsin-treated platelets): 50% | IC50 (ADP-stimulated platelets): 130 nM | solubility in water (Solubility in water): soluble in water | IC50 [6]: 28 nM | stability to proteolysis (Stability to proteolysis): relatively stable to proteolysis | elimination from the circulation [7]: eliminated from the circulation rapidly | blocking of von Willebrand Factor binding to ristocetin-stimulated platelets [8]: does not block | inhibition of platelet aggregation induced by 9,11-dideoxy-9,11-methanoepoxy-PGF2-alpha (platelets; agonist 2.5 micromolar): inhibited platelet aggregation | inhibition of platelet aggregation induced by thrombin (platelets; thrombin 0.5 units/ml): inhibited platelet aggregation | Ki [9]: 20 nM

CC#CCC(C)[C@H](O)/C=C/[C@@H]1[C@H]2C/C(=C/CCCC(=O)O)C[C@H]2C[C@H]1O (stereo partly drawn) [Iloplrost, reference compound]
time until bleeding ceased after the completion of the infusion ([2]; one hamster, positive control, 2 ng/kg/min): approximately 9 minutes
